According to BindingDB's records for doi:10.1021/acs.biochem.6b01020 (University of Delaware, 2017):
Square brackets hold non-standard residues; d marks the D form. Peptide text beside a SMILES is read from it. * marks the point of attachment. C(CF3)3 = FC(F)(F)C(C(F)(F)F)(C(F)(F)F)*; Hyp = O=C(O)[C@@H]1C[C@@H](O)CN1; hSer = N[C@@H](CCO)C(=O)O

Target: T1, Estradiol-bound Estrogen receptor [255-595] (Homo sapiens, UniProt P03372)
T1 construct: 255-595
T1 sequence (P03372 whole entry): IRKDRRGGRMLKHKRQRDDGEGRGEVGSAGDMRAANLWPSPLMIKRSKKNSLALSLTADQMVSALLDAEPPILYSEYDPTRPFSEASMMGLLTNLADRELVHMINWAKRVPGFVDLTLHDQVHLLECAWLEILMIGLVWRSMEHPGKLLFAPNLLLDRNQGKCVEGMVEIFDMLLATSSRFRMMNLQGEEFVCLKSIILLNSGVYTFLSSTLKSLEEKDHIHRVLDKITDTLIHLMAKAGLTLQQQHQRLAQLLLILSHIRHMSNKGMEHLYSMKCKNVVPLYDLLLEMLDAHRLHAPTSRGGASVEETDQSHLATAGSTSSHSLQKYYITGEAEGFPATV
Assay: Fluorescence Polarization Assay
Conditions: pH 7.4; 25 °C
Description: Peptide concentrations were determined by the absorbance at 492 nm, using a fluorescein extinction coefficient of 83000. Fluorescence polarization assays were conducted in 96-well round-bottom black opaque plates (Costar) using 2-fold serial dilutions of the ERα LBD, to final protein concentrations from 10 to 0.0098 μM, in PBS containing 0.1 mM DTT, 20 μM 17β-estradiol, 0.04 mg/mL BSA, and 100 nM fluorescein-labeled peptide. Solutions were incubated in the dark for 30 min at room temperature before being read on a PerkinElmer Fusion plate reader using a 485 nm fluorescein excitation filter and a 535 nm emission filter with a polarizer.

| Kd | Molecule |
| --- | --- |
| 2.2 µM | CC[C@H](C)[C@H](NC(=O)[C@H](CCCCN)NC(=O)[C@H](Cc1cnc[nH]1)NC(=O)[C@H](CCCNC(=N)N)NC(=O)[C@H](CCC(=O)O)NC(=O)[C@@H](NC(=O)[C@H](CC(C)C)NC(=O)[C@@H](N)CS)[C@@H](C)O)C(=O)N[C@@H](CC(C)C)C(=O)N[C@@H](Cc1cnc[nH]1)C(=O)N[C@@H](CCCNC(=N)N)C(=O)N[C@@H](CCOC(C(F)(F)F)(C(F)(F)F)C(F)(F)F)C(=O)N[C@@H](CC(C)C)C(=O)N[C@@H](CCC(N)=O)C(=O)N[C@@H](CCC(=O)O)C(=O)O (H-CLTERHKILHR[hSer](C(CF3)3)LQE-OH) |
| 1 µM | H-CLTERHKILHRLLQE-OH |
| 7.1 µM | CC(C)C[C@H](NC(=O)[C@H](CC(C)C)NC(=O)[C@H](CCCNC(=N)N)NC(=O)[C@H](Cc1cnc[nH]1)NC(=O)[C@H](CC(C)C)NC(=O)[C@H](CCOC(C(F)(F)F)(C(F)(F)F)C(F)(F)F)NC(=O)[C@H](CCCCN)NC(=O)[C@H](Cc1cnc[nH]1)NC(=O)[C@H](CCCNC(=N)N)NC(=O)[C@H](CCC(=O)O)NC(=O)[C@@H](NC(=O)[C@H](CC(C)C)NC(=O)[C@@H](N)CS)[C@@H](C)O)C(=O)N[C@@H](CCC(N)=O)C(=O)N[C@@H](CCC(=O)O)C(=O)O [CLTERHK(Hse(C4F9))LHRLLQE] (H-CLTERHK[hSer](C(CF3)3)LHRLLQE-OH) |
| 43 µM | CC[C@H](C)[C@H](NC(=O)[C@H](CCCCN)NC(=O)[C@H](Cc1cnc[nH]1)NC(=O)[C@H](CCCNC(=N)N)NC(=O)[C@H](CCC(=O)O)NC(=O)[C@@H](NC(=O)[C@H](CC(C)C)NC(=O)[C@@H](N)CS)[C@@H](C)O)C(=O)N[C@H](CCOC(C(F)(F)F)(C(F)(F)F)C(F)(F)F)C(=O)N[C@@H](Cc1cnc[nH]1)C(=O)N[C@@H](CCCNC(=N)N)C(=O)N[C@@H](CC(C)C)C(=O)N[C@@H](CC(C)C)C(=O)N[C@@H](CCC(N)=O)C(=O)N[C@@H](CCC(=O)O)C(=O)O |
| > 150 µM | CC[C@H](C)[C@H](NC(=O)[C@H](CCCCN)NC(=O)[C@H](Cc1cnc[nH]1)NC(=O)[C@H](CCCNC(=N)N)NC(=O)[C@H](CCC(=O)O)NC(=O)[C@@H](NC(=O)[C@H](CC(C)C)NC(=O)[C@@H](N)CS)[C@@H](C)O)C(=O)N1C[C@H](OC(C(F)(F)F)(C(F)(F)F)C(F)(F)F)C[C@H]1C(=O)N[C@@H](Cc1cnc[nH]1)C(=O)N[C@@H](CCCNC(=N)N)C(=O)N[C@@H](CC(C)C)C(=O)N[C@@H](CC(C)C)C(=O)N[C@@H](CCC(N)=O)C(=O)N[C@@H](CCC(=O)O)C(=O)O (H-CLTERHKI[Hyp](C(CF3)3)HRLLQE-OH) |
